Data from US10308689B2, “Dengue virus (DV) polypeptide sequences, T cell epitopes and methods and uses thereof” (LA JOLLA INSTITUTE FOR ALLERGY AND IMMUNOLOGY, priority 2010, dated 2019).
Ends that are not written are not given here.

Test system: PBMC of healthy adult blood donors from Colombo, Sri Lanka
Experiment: Ex vivo IFNγ ELISPOT, HLA-matched PBMC of Sri Lankan blood donors
Assay type: cell-based, human
Parameters: Total Response per epitope: unit not given here
Conditions: for # donors responded: number of donors responding to the epitope
[1] = restricting HLA allele and serotype as given
[2] = total over responding donors, restricting HLA allele and serotype as given
[3] = IFNγ ELISPOT response summed over responding donors, per epitope
[4] = HLA-matched PBMC, proteome-wide screen
[5] = HLA allele, supertype and serotype
[6] = summed IFNγ ELISPOT response per epitope, HLA allele and serotype as given

Row | Compound | # donors responded [1] | Total Response per epitope [2] | Total Response per epitope [3] | # donors responded [4] | other results
1 | CC[C@H](C)[C@H](N)C(=O)N[C@@H](C)C(=O)N[C@H](C(=O)N[C@@H](CO)C(=O)N[C@@H](CCSC)C(=O)N[C@@H](C)C(=O)N[C@@H](CC(N)=O)C(=O)N[C@H](C(=O)N[C@@H](Cc1ccccc1)C(=O)O)[C@@H](C)CC)C(C)C | 6 | 1966.7 |  |  | 
2 | CC(C)C[C@H](N)C(=O)N1CCC[C@H]1C(=O)N[C@@H](CCC(=O)O)C(=O)N[C@@H](CCC(=O)O)C(=O)N[C@@H](CCC(N)=O)C(=O)N[C@@H](CC(=O)O)C(=O)N[C@@H](CCC(N)=O)C(=O)N[C@@H](CC(N)=O)C(=O)N[C@@H](Cc1ccc(O)cc1)C(=O)O |  |  | 1166.7 | 5 | 
3 | CC(C)[C@H](NC(=O)[C@H](CCCNC(=N)N)NC(=O)[C@H](CCC(N)=O)NC(=O)[C@H](CCC(N)=O)NC(=O)CNC(=O)[C@H](Cc1ccccc1)NC(=O)[C@@H]1CCCN1C(=O)[C@@H](N)[C@@H](C)O)C(=O)N[C@@H](Cc1ccccc1)C(=O)O |  |  |  |  | # donors responded [5]: 3; Total Response per epitope [6]: 438.3
4 | YAQMWQLMYF |  |  | 135.0 | 1 | 
5 | FAGPVSQHNY | 3 | 428.3 |  |  | 
6 | CSCC[C@H](NC(=O)[C@H](C)NC(=O)CNC(=O)[C@H](CCC(=O)O)NC(=O)[C@@H](N)CCC(N)=O)C(=O)N[C@@H](Cc1c[nH]cn1)C(=O)N[C@H](C(=O)N[C@@H](C)C(=O)N[C@@H](CC(C)C)C(=O)O)[C@@H](C)O [QEGAMHTAL] |  |  | 40.0 | 1 | 
7 | DPRRCLKPV | 2 | 556.7 |  |  | 
8 | CSCC[C@H](NC(=O)[C@H](Cc1ccc(O)cc1)NC(=O)[C@@H]1CCCN1C(=O)[C@H](CC(N)=O)NC(=O)[C@H](CC(C)C)NC(=O)[C@@H](N)C(C)C)C(=O)N1CCC[C@H]1C(=O)N[C@@H](CO)C(=O)N[C@H](C(=O)O)C(C)C |  |  | 41.7 | 1 | 
9 | CSCC[C@H](NC(=O)[C@H](C)NC(=O)CNC(=O)[C@H](CCC(=O)O)NC(=O)[C@@H](N)CCC(N)=O)C(=O)N[C@@H](Cc1c[nH]cn1)C(=O)N[C@@H](CO)C(=O)N[C@@H](C)C(=O)N[C@@H](CC(C)C)C(=O)O [QEGAMHSAL] |  |  | 48.3 | 1 | 
10 | CC[C@H](C)[C@H](NC(=O)[C@H](C)NC(=O)[C@H](C)NC(=O)[C@H](CCSC)NC(=O)[C@@H](NC(=O)[C@@H](N)[C@@H](C)O)[C@@H](C)CC)C(=O)N[C@@H](CC(C)C)C(=O)N[C@@H](C)C(=O)N[C@@H](Cc1ccc(O)cc1)C(=O)O | 1 | 20.0 |  |  | 
11 | CC[C@H](C)[C@H](NC(=O)[C@H](CC(N)=O)NC(=O)[C@H](C)NC(=O)[C@@H](N)CCSC)C(=O)N[C@@H](Cc1ccccc1)C(=O)N[C@@H](CCCNC(=N)N)C(=O)NCC(=O)N[C@@H](CO)C(=O)N[C@@H](Cc1ccc(O)cc1)C(=O)O |  |  | 821.7 | 5 | 
12 | CC[C@H](C)[C@H](N)C(=O)N[C@@H](CCC(N)=O)C(=O)N1CCC[C@H]1C(=O)N[C@@H](Cc1ccccc1)C(=O)N[C@@H](CC(C)C)C(=O)N[C@@H](C)C(=O)N[C@@H](CC(C)C)C(=O)NCC(=O)N[C@@H](Cc1ccccc1)C(=O)O | 1 | 85.0 |  |  | 
13 | TTKRDLGMSK |  |  |  |  | # donors responded [5]: 1; Total Response per epitope [6]: 35.0
14 | CC[C@H](C)[C@H](N)C(=O)N1CCC[C@H]1C(=O)N[C@@H](CCSC)C(=O)N[C@H](C(=O)NCC(=O)N1CCC[C@H]1C(=O)N[C@@H](CC(C)C)C(=O)N[C@H](C(=O)N[C@@H](C)C(=O)NCC(=O)O)C(C)C)[C@@H](C)O | 5 | 1160.0 |  |  | 
15 | RPGYHTQTA |  |  | 501.7 | 2 | 
16 | REDLWCGSL |  |  | 96.7 | 1 | 
17 | CC(C)C[C@H](NC(=O)[C@@H](NC(=O)[C@H](C)NC(=O)[C@H](CCC(=O)O)NC(=O)CNC(=O)[C@H](CCC(N)=O)NC(=O)[C@@H](NC(=O)[C@@H]1CCCN1C(=O)[C@@H](N)CS)[C@@H](C)O)C(C)C)C(=O)O | 2 | 385.0 |  |  | 
18 | CC(C)C[C@H](NC(=O)[C@H](CCC(N)=O)NC(=O)CNC(=O)[C@@H]1CCCN1C(=O)[C@@H](N)CCC(=O)O)C(=O)N[C@@H](CCCCN)C(=O)N[C@@H](CC(C)C)C(=O)N[C@@H](CC(N)=O)C(=O)N[C@@H](Cc1c[nH]c2ccccc12)C(=O)N[C@@H](Cc1ccccc1)C(=O)O | 5 | 581.7 |  |  | 
19 | SEMAEALKGM |  |  | 30.0 | 1 | 

Row | Compound | # donors responded [1] | Total Response per epitope [2] | Total Response per epitope [3] | # donors responded [4] | other results
20 | CC[C@H](C)[C@H](NC(=O)[C@@H]1CCCN1C(=O)[C@H](CCC(=O)O)NC(=O)[C@H](CCC(=O)O)NC(=O)[C@H](Cc1c[nH]cn1)NC(=O)CNC(=O)[C@@H]1CCCN1C(=O)CN)C(=O)N1CCC[C@H]1C(=O)N[C@@H](CCSC)C(=O)O | 3 | 235.0 |  |  | 
21 | CSCC[C@H](NC(=O)[C@H](Cc1ccc(O)cc1)NC(=O)[C@@H](N)CCCNC(=N)N)C(=O)NCC(=O)N[C@@H](CCC(=O)O)C(=O)N[C@@H](CC(=O)O)C(=O)NCC(=O)N[C@@H](CS)C(=O)N[C@@H](Cc1c[nH]c2ccccc12)C(=O)N[C@@H](Cc1ccc(O)cc1)C(=O)O |  |  | 66.7 | 1 | 
22 | EERDIPERSW | 1 | 133.3 |  |  | 
23 | GPLVAGGLL | 3 | 748.3 |  |  | 
24 | NPWMEDKTPV |  |  | 191.7 | 2 | 
25 | CSCC[C@H](NC(=O)[C@H](CCC(=O)O)NC(=O)[C@H](CC(C)C)NC(=O)[C@H](CCCCN)NC(=O)CNC(=O)[C@H](CC(C)C)NC(=O)[C@H](Cc1c[nH]cn1)NC(=O)[C@H](Cc1c[nH]c2ccccc12)NC(=O)[C@@H]1CCCN1C(=O)CN)C(=O)O | 3 | 90.0 |  |  | 
26 | CC(C)C[C@H](NC(=O)[C@H](CO)NC(=O)CNC(=O)[C@H](CS)NC(=O)[C@H](Cc1c[nH]c2ccccc12)NC(=O)[C@H](CCC(N)=O)NC(=O)[C@H](CC(=O)O)NC(=O)[C@H](CCC(=O)O)NC(=O)[C@@H](N)CCCNC(=N)N)C(=O)O |  |  | 48.3 | 1 | 
27 | KQISNELNY | 1 | 26.7 |  |  | 
28 | CC[C@H](C)[C@H](NC(=O)[C@@H]1CCCN1C(=O)[C@@H](N)CC(=O)O)C(=O)N1CCC[C@H]1C(=O)N[C@@H](Cc1ccc(O)cc1)C(=O)N[C@@H](CC(=O)O)C(=O)N1CCC[C@H]1C(=O)N[C@@H](CCCCN)C(=O)N[C@@H](Cc1ccccc1)C(=O)O | 1 | 38.3 |  |  | 
29 | EPISYDPKF | 1 | 340.0 |  |  | 
30 | CC(C)C[C@H](NC(=O)[C@@H](NC(=O)[C@H](C)NC(=O)[C@H](CCC(=O)O)NC(=O)CNC(=O)[C@H](CCC(N)=O)NC(=O)[C@@H](NC(=O)[C@@H]1CCCN1C(=O)[C@@H](N)CS)[C@@H](C)O)[C@@H](C)O)C(=O)O | 1 | 295.0 |  |  | 
31 | C[C@H](NC(=O)[C@H](CCCNC(=N)N)NC(=O)CNC(=O)CNC(=O)[C@H](C)NC(=O)[C@H](CCC(=O)O)NC(=O)[C@H](C)NC(=O)[C@@H](N)[C@@H](C)O)C(=O)N[C@@H](Cc1ccc(O)cc1)C(=O)O |  |  | 371.7 | 4 | 
32 | C[C@H](NC(=O)[C@@H](N)Cc1c[nH]c2ccccc12)C(=O)N[C@@H](Cc1ccc(O)cc1)C(=O)N[C@@H](Cc1c[nH]cn1)C(=O)NCC(=O)N[C@@H](CO)C(=O)N[C@@H](Cc1ccc(O)cc1)C(=O)N[C@@H](CCC(=O)O)C(=O)N[C@H](C(=O)O)[C@@H](C)O |  |  |  |  | # donors responded [5]: 3; Total Response per epitope [6]: 1220.0
33 | CC[C@H](C)[C@H](N)C(=O)N1CCC[C@H]1C(=O)N[C@@H](Cc1ccccc1)C(=O)N[C@@H](CCC(=O)O)C(=O)N[C@H](C(=O)N[C@@H](CCSC)C(=O)N[C@@H](CC(=O)O)C(=O)N[C@@H](CC(C)C)C(=O)N[C@@H](CCC(=O)O)C(=O)N[C@@H](CCCCN)C(=O)O)[C@@H](C)CC | 5 | 1500.0 |  |  | 
34 | CSCC[C@H](NC(=O)[C@@H](NC(=O)[C@@H](N)Cc1ccccc1)[C@@H](C)O)C(=O)N[C@@H](CCCNC(=N)N)C(=O)N[C@@H](Cc1c[nH]cn1)C(=O)N[C@@H](CCCCN)C(=O)N[C@@H](CCCCN)C(=O)N[C@@H](C)C(=O)N[C@H](C(=O)N[C@@H](Cc1ccc(O)cc1)C(=O)O)[C@@H](C)O | 4 | 1723.3 |  |  | T cell response [SFC] (per epitope, ex vivo IFNγ SFC/10^6 PBMC): 1723 SFC; # of responders (responding donors, HLA allele(s)): 4
35 | CC[C@H](C)[C@H](NC(=O)[C@H](CC(C)C)NC(=O)[C@H](CC(C)C)NC(=O)[C@@H](N)CCSC)C(=O)N[C@@H](CC(C)C)C(=O)N[C@@H](CS)C(=O)N[C@H](C(=O)N[C@H](C(=O)N[C@@H](CCC(N)=O)C(=O)N[C@H](C(=O)O)C(C)C)[C@@H](C)O)C(C)C |  |  | 43.3 | 1 | 
36 | CC[C@H](C)[C@H](NC(=O)[C@H](C)NC(=O)[C@H](C)NC(=O)[C@H](CCSC)NC(=O)[C@@H](NC(=O)[C@@H](NC(=O)[C@@H](N)Cc1ccccc1)[C@@H](C)O)[C@@H](C)CC)C(=O)N[C@@H](CC(C)C)C(=O)N[C@@H](C)C(=O)N[C@@H](Cc1ccc(O)cc1)C(=O)O | 2 | 675.0 |  |  | 
37 | CC(C)[C@H](NC(=O)[C@H](C)NC(=O)[C@@H](N)CCC(=O)O)C(=O)N[C@@H](CCC(=O)O)C(=O)N[C@@H](CC(=O)O)C(=O)N[C@@H](CO)C(=O)N[C@@H](CCCNC(=N)N)C(=O)N[C@@H](Cc1ccccc1)C(=O)N[C@@H](Cc1c[nH]c2ccccc12)C(=O)N[C@@H](CCC(=O)O)C(=O)O | 1 | 248.3 |  |  | 
38 | TLMAMDLGEL |  |  | 823.3 | 1 | 
